Data taken from article PMC11062899, “De novo development of small cyclic peptides that are orally bioavailable” (Nature Chemical Biology, 2023).
“And” between values parts separate entries of the source, which are not always exact repeats. Equal values may be shown once. Blank lines part the entries; values can stand above or below the compound they belong to.

Tests used:
[1] = Metabolic stability in rat liver microsomes (RLMs); conditions: rat, microsomes
[2] = Passive artificial membrane permeability (PAMPA); conditions: for PAMPA permeability: % permeability: 50 μM, 12–18 h, acceptor concentration relative to equilibrium; for Papp at 50 μM / Permeability% Average / Permeability% R1 / Permeability% R3: PAMPA; for Papp at 50 μM: pH 7.4; for Permeability% Average: average of R1-R3; for Permeability% R1: replicate R1; for Permeability% R1 / Permeability% R3: TIC of top well sample relative to sample at theoretical equilibrium; for Permeability% R3: replicate R3
porcine pancreatin = assay: Peptide stability in simulated intestinal fluid (SIF); format: in vitro ADME; conditions: after 8 h vs 0 h (TIC); for SIF stability, Residual peptide Average: average of R1-R3
Protocol: (§1) Simulated gastric and intestinal fluids were prepared according to the States Pharmacopeia specifications (Test Solutions, United States Pharmacopeia 35, NF 30, 2012). SGF: 0.2 g of sodium chloride was dissolved in 50 ml of water, and the pH was adjusted to 1.2 by addition of 0.7 ml of 10 M hydrochloric acid. Then, 0.32 g of porcine pepsin (Sigma-Aldrich, P7125) was dissolved under gentle agitation, and the volume was filled up to 100 ml with Milli-Q water. SIF: 0.68 g of monobasic potassium phosphate was dissolved in 25 ml of Milli-Q water, and the pH was adjusted to 6.8 by adding 7.7 ml of a 0.2 M sodium hydroxide solution. Next, 1 g of porcine pancreatin (Sigma-Aldrich, P3292) was added under gentle agitation, and the volume was adjusted to 100 ml with Milli-Q water to afford a fine suspension. To test the stability in simulated gastrointestinal fluids, 396 μl of SGF or SIF was pre-heated at 37 °C for 10 min, and 4 μl of a 1 mM peptide solution in DMSO was added. […] Supernatant was analyzed by LC–MS to measure the peptide concentrations at the different timepoints. Residual peptide was calculated by normalizing the concentrations measured at T1 to T0.

[3] = as above; format: in vitro ADME, porcine; conditions: simulated gi fluid; 8 h, 37 °C, pH 6.8; read-out: Proteolytic stability: SIF (8 h) % remaining
Protocol: as §1

porcine pepsin = biological target: T1, porcine pepsin (Sus scrofa, UniProt P00791); assay: Peptide stability in simulated gastric fluid (SGF); format: in vitro ADME; conditions: for SGF stability, Residual peptide Average / SGF stability, Residual peptide: after 8 h vs 0 h (TIC); for SGF stability, Residual peptide Average: average of R1-R3; for SGF stability, Residual peptide: single replicates R1-R3; for remaining at 8 h: simulated gi fluid, 37 °C, pH 1.2, read-out: Proteolytic stability: SGF (8 h) % remaining
T1 construct: 0.32 g of porcine pepsin (Sigma-Aldrich, P7125) was dissolved under gentle agitation; purchased Sigma-Aldrich P7125
Protocol: as §1

human α-thrombin = human α-thrombin (Homo sapiens, UniProt P00734); assay: Protease inhibition, Ki for human α-thrombin (fluorogenic substrate Z-Gly-Gly-Arg-AMC); format: biochemical; conditions: replicates R1-R3
Method in brief: (§2)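 Ki derived through Cheng–Prusoff from IC50s (four-parameter logistic fit) against activity of peptide-free controls. Product fluorescence was read every 3 min over 30 min at 25 °C, substrate Z-Gly-Gly-Arg-AMC at 50 μM. Enzyme was 2 nM human or 3 nM rat α-thrombin, pH 7.4 buffer.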

rat α-thrombin = biological target: T2, rat α-thrombin (Rattus norvegicus, UniProt P18292); assay: Protease inhibition, Ki for rat α-thrombin (fluorogenic substrate Z-Gly-Gly-Arg-AMC); format: biochemical; conditions: replicates R1-R3
T2 construct: rat α-thrombin (Molecular Innovations) were used at final concentrations of 2 nM and 3 nM; purchased Molecular Innovations
Method in brief: as §2

[4] = CL (ul/min/mg protein) R1, RLM CL, replicate R1
[5] = CL (ul/min/mg protein) R2, RLM CL, replicate R2
[6] = CL (ul/min/mg protein) R3, RLM CL, replicate R3
[7] = Half Life (min) R1, RLM metabolic stability, replicate R1, 0-60 min
[8] = Half Life (min) R2, RLM metabolic stability, replicate R2, 0-60 min
[9] = Half Life (min) R3, RLM metabolic stability, replicate R3, 0-60 min
[10] = Metabolic stability: Half life T1/2 (min), RLMs, mean and SD, three measurements
[11] = Metabolic stability: RLM CL (ul/min/mg), RLMs, mean and SD, three measurements
[12] = peptide 1.33E+02 uM, slope of proteolytic substrate cleavage over time

T1 sequence (P00791 60-385): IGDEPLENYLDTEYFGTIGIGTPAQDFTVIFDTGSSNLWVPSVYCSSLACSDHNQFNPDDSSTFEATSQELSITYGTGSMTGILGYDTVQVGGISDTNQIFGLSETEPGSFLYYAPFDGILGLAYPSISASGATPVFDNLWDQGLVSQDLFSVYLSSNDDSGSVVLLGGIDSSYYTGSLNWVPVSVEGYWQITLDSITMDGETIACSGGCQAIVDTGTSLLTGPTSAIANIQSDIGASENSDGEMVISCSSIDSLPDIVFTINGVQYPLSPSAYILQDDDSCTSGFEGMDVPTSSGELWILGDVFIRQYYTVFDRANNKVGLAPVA

microsomal CLint [1, 4]: 61 µL/min/mg
microsomal CLint [1, 5]: 51.4 µL/min/mg
microsomal CLint [1, 6]: 62.2 µL/min/mg
half-life [1, 7]: 22.7 min
half-life [1, 8]: 26.9 min
half-life [1, 9]: 22.3 min
half-life [1, 10]: 24 ± 2 min
microsomal CLint [1, 11]: 58 ± 5 µL/min/mg
PAMPA permeability: % permeability [2]: 8.6 ± 3.0%
Papp at 50 μM [2]: 0.575 ×10⁻⁶ cm/s
Permeability% Average [2]: 8.6%
Permeability% R1 [2]: 11.91%
Permeability% R3 [2]: 7.66%
SIF stability, Residual peptide Average (porcine pancreatin): 6.32
remaining at 8 h [3]: 6.3 ± 1.9%
SGF stability, Residual peptide Average (porcine pepsin): 98.52
SGF stability, Residual peptide (porcine pepsin): 104.99 and 99.11 and 91.47
remaining at 8 h (porcine pepsin): 99 ± 7%
Human alpha thrombin inhibition, slope normalized to DMSO (human α-thrombin; peptide 1.02E-03 uM): 95.7 (2×) and 101.7
Human alpha thrombin inhibition, slope normalized to DMSO (human α-thrombin; peptide 1.04E+00 uM): 62.0 and 61.5 and 59.7
Human alpha thrombin inhibition, slope normalized to DMSO (human α-thrombin; peptide 1.27E-04 uM): 99.4 and 101.3 and 98.3
Human alpha thrombin inhibition, slope normalized to DMSO (human α-thrombin; peptide 1.30E-01 uM): 89.0 and 89.6 and 91.9
Human alpha thrombin inhibition, slope normalized to DMSO (human α-thrombin; [12]): 4.8 and 2.4 and 6.7
Human alpha thrombin inhibition, slope normalized to DMSO (human α-thrombin; peptide 1.63E-02 uM): 103.7 and 97.9 and 94.4
Human alpha thrombin inhibition, slope normalized to DMSO (human α-thrombin; peptide 1.67E+01 uM): -1.3 and 11.2 and 10.7
Human alpha thrombin inhibition, slope normalized to DMSO (human α-thrombin; peptide 2.03E-03 uM): 102.2 and 96.9 and 97.7
Human alpha thrombin inhibition, slope normalized to DMSO (human α-thrombin; peptide 2.08E+00 uM): 40.1 and 46.6 and 47.4
Human alpha thrombin inhibition, slope normalized to DMSO (human α-thrombin; peptide 2.54E-04 uM): 100.3 and 97.2 and 96.3
Human alpha thrombin inhibition, slope normalized to DMSO (human α-thrombin; peptide 2.60E-01 uM): 83.3 and 73.2 and 85.9
Human alpha thrombin inhibition, slope normalized to DMSO (human α-thrombin; peptide 3.18E-05 uM): 101.8 and 98.5 and 103.1
Human alpha thrombin inhibition, slope normalized to DMSO (human α-thrombin; peptide 3.26E-02 uM): 95.9 and 94.2 and 94.5
Human alpha thrombin inhibition, slope normalized to DMSO (human α-thrombin; peptide 3.33E+01 uM): 6.5 (2×) and 8.7
Human alpha thrombin inhibition, slope normalized to DMSO (human α-thrombin; peptide 4.07E-03 uM): 101.7 and 97.8 and 102.2
Human alpha thrombin inhibition, slope normalized to DMSO (human α-thrombin; peptide 4.17E+00 uM): 27.0 and 27.6 and 28.2
Human alpha thrombin inhibition, slope normalized to DMSO (human α-thrombin; peptide 5.09E-04 uM): 97.5 and 98.8 and 97.2
Human alpha thrombin inhibition, slope normalized to DMSO (human α-thrombin; peptide 5.21E-01 uM): 78.3 and 65.6 and 76.6
Human alpha thrombin inhibition, slope normalized to DMSO (human α-thrombin; peptide 6.36E-05 uM): 105.9 and 99.3 and 96.8
Human alpha thrombin inhibition, slope normalized to DMSO (human α-thrombin; peptide 6.51E-02 uM): 92.3 and 91.0 and 94.1
Human alpha thrombin inhibition, slope normalized to DMSO (human α-thrombin; peptide 6.67E+01 uM): 5.1 and 4.9 and 7.0
Human alpha thrombin inhibition, slope normalized to DMSO (human α-thrombin; peptide 8.14E-03 uM): 97.0 (2×) and 91.0
Human alpha thrombin inhibition, slope normalized to DMSO (human α-thrombin; peptide 8.33E+00 uM): 19.7 and 13.2 and 20.2
Rat alpha thrombin inhibition, slope normalized to DMSO (rat α-thrombin; [12]): 3.3 and 2.8 and 2.1
Rat alpha thrombin inhibition, slope normalized to DMSO (rat α-thrombin; peptide 1.67E+01 uM): 6.6 and 5.4 and 5.1
Rat alpha thrombin inhibition, slope normalized to DMSO (rat α-thrombin; peptide 2.08E+00 uM): 33.9 and 33.4 and 32.2
Rat alpha thrombin inhibition, slope normalized to DMSO (rat α-thrombin; peptide 3.33E+01 uM): 4.4 and 3.4 and 3.5
Rat alpha thrombin inhibition, slope normalized to DMSO (rat α-thrombin; peptide 4.17E+00 uM): 19.8 and 18.5 and 18.4
Rat alpha thrombin inhibition, slope normalized to DMSO (rat α-thrombin; peptide 6.67E+01 uM): 3.3 and 1.7 and 2.4
Rat alpha thrombin inhibition, slope normalized to DMSO (rat α-thrombin; peptide 8.33E+00 uM): 11.8 and 11.2 and 10.2
Compound: O=C(N[C@H]1CSCCS(=O)(=O)CCSCCNC(=O)C2(CC2)CNC(=O)[C@H](Cc2ccccc2)NC1=O)c1ccc(Cl)s1 [compound 16]

microsomal CLint [1, 4]: 149 µL/min/mg
microsomal CLint [1, 5]: 98.2 µL/min/mg
microsomal CLint [1, 6]: 109 µL/min/mg
half-life [1, 7]: 9.3 min
half-life [1, 8]: 14.1 min
half-life [1, 9]: 12.7 min
half-life [1, 10]: 12.1 ± 2 min
microsomal CLint [1, 11]: 119 ± 22 µL/min/mg
PAMPA permeability: % permeability [2]: 0.86 ± 0.09%
Papp at 50 μM [2]: 0.0575 ×10⁻⁶ cm/s
Permeability% Average [2]: 0.9%
Permeability% R1 [2]: 0.87%
Permeability% R3 [2]: 0.95%
SIF stability, Residual peptide Average (porcine pancreatin): 91.77
SIF stability, Residual peptide (porcine pancreatin; single replicates R1-R3): 101.93 and 87.06 and 86.31
remaining at 8 h [3]: 92 ± 9%
SGF stability, Residual peptide Average (porcine pepsin): 97.83
SGF stability, Residual peptide (porcine pepsin): 97.70 and 100.05 and 95.74
remaining at 8 h (porcine pepsin): 98 ± 2%
Human alpha thrombin inhibition, slope normalized to DMSO (human α-thrombin; peptide 1.02E-03 uM): 90.3 and 94.2 and 97.4
Human alpha thrombin inhibition, slope normalized to DMSO (human α-thrombin; peptide 1.04E+00 uM): 86.6 and 86.7 and 88.9
Human alpha thrombin inhibition, slope normalized to DMSO (human α-thrombin; peptide 1.27E-04 uM): 98.6 and 95.2 and 97.6
Human alpha thrombin inhibition, slope normalized to DMSO (human α-thrombin; peptide 1.30E-01 uM): 95.9 and 91.0 and 95.3
Human alpha thrombin inhibition, slope normalized to DMSO (human α-thrombin; [12]): 25.3 and 29.1 and 30.1
Human alpha thrombin inhibition, slope normalized to DMSO (human α-thrombin; peptide 1.63E-02 uM): 109.1 and 94.1 and 96.6
Human alpha thrombin inhibition, slope normalized to DMSO (human α-thrombin; peptide 1.67E+01 uM): 56.0 and 55.9 and 56.8
Human alpha thrombin inhibition, slope normalized to DMSO (human α-thrombin; peptide 2.03E-03 uM): 98.0 and 93.9 and 96.6
Human alpha thrombin inhibition, slope normalized to DMSO (human α-thrombin; peptide 2.08E+00 uM): 93.5 and 81.6 and 87.4
Human alpha thrombin inhibition, slope normalized to DMSO (human α-thrombin; peptide 2.54E-04 uM): 96.9 and 93.2 and 95.5
Human alpha thrombin inhibition, slope normalized to DMSO (human α-thrombin; peptide 2.60E-01 uM): 93.6 and 91.3 and 95.4
Human alpha thrombin inhibition, slope normalized to DMSO (human α-thrombin; peptide 3.18E-05 uM): 97.0 and 94.8 and 95.7
Human alpha thrombin inhibition, slope normalized to DMSO (human α-thrombin; peptide 3.26E-02 uM): 97.9 and 92.8 and 96.6
Human alpha thrombin inhibition, slope normalized to DMSO (human α-thrombin; peptide 3.33E+01 uM): 44.0 and 43.7 and 42.6
Human alpha thrombin inhibition, slope normalized to DMSO (human α-thrombin; peptide 4.07E-03 uM): 98.5 and 94.3 and 98.3
Human alpha thrombin inhibition, slope normalized to DMSO (human α-thrombin; peptide 4.17E+00 uM): 81.7 and 78.5 and 82.6
Human alpha thrombin inhibition, slope normalized to DMSO (human α-thrombin; peptide 5.09E-04 uM): 98.7 and 85.0 and 98.3
Human alpha thrombin inhibition, slope normalized to DMSO (human α-thrombin; peptide 5.21E-01 uM): 102.0 and 91.0 and 92.1
Human alpha thrombin inhibition, slope normalized to DMSO (human α-thrombin; peptide 6.36E-05 uM): 94.5 and 96.0 and 100.7
Human alpha thrombin inhibition, slope normalized to DMSO (human α-thrombin; peptide 6.51E-02 uM): 96.7 and 92.1 and 95.5
Human alpha thrombin inhibition, slope normalized to DMSO (human α-thrombin; peptide 6.67E+01 uM): 31.6 and 30.0 and 31.3
Human alpha thrombin inhibition, slope normalized to DMSO (human α-thrombin; peptide 8.14E-03 uM): 98.1 and 93.7 and 96.2
Human alpha thrombin inhibition, slope normalized to DMSO (human α-thrombin; peptide 8.33E+00 uM): 74.6 and 70.2 and 71.4
Rat alpha thrombin inhibition, slope normalized to DMSO (rat α-thrombin; [12]): 11.3 and 13.8 and 8.3
Rat alpha thrombin inhibition, slope normalized to DMSO (rat α-thrombin; peptide 1.67E+01 uM): 29.0 and 30.7 and 41.4
Rat alpha thrombin inhibition, slope normalized to DMSO (rat α-thrombin; peptide 2.08E+00 uM): 79.8 and 81.7 and 85.5
Rat alpha thrombin inhibition, slope normalized to DMSO (rat α-thrombin; peptide 3.33E+01 uM): 17.9 and 19.2 and 22.6
Rat alpha thrombin inhibition, slope normalized to DMSO (rat α-thrombin; peptide 4.17E+00 uM): 59.7 and 62.6 and 71.9
Rat alpha thrombin inhibition, slope normalized to DMSO (rat α-thrombin; peptide 6.67E+01 uM): 10.8 and 11.8 and 26.2
Rat alpha thrombin inhibition, slope normalized to DMSO (rat α-thrombin; peptide 8.33E+00 uM): 44.9 and 46.7 and 59.3
Compound: O=C1CCSCc2cccc(n2)CSCCNC(=O)[C@H](CO)NC(=O)[C@@H](NC(=O)c2ccc(Cl)s2)CN1 [compound 17]
